Experimental data: patent US9233127B2, “Compositions and methods for CXCR4 signaling and umbilical cord blood stem cell engraftment” (University of Virginia Patent Foundation, priority 2012, dated 2016)
“Also recorded” adds a separate entry of the source.

Assays:
[1] = tested on: UCB CD34+ cells; assay: Transwell chemotaxis of UCB CD34+ cells to SDF-1 (priming); type: cell-based, human
Procedure: FIG. 11A-B—Effect of SLP and its components on chemotaxis of CD34^+ cells. Panel A: Chemotaxis of BM CD34^+ cells towards medium alone (control), SDF-1 low (10 ng/mL) alone, SLP (combined SLP from three patients), SDF-1 low+SLP, and SDF-1 high (300 ng/mL). Data are pooled from quadruplicate samples from three independent experiments. *p<0.00001. Panel B: Chemotaxis of UCB CD34^+ cells to medium alone (control), SDF-1 low (10 ng/mL) alone and SDF-1 low (10 ng/mL)+uPAR (1 μg/mL) or +ICAM (1 μg/mL) or +VCAM (1 μg/mL) or +FN (2 μg/mL), or +FG (4 μg/mL) or +C3a (1 μg/mL). Data are pooled from quadruplicate samples from three independent experiments. * p<0.00001.
An increased migration of UCB-derived CD34^+ cells, as compared to BM and mPB CD34^+ cells was reported in transwell migration assays was previously reported. However, we noticed large inter-individual differences in the in vitro migratory ability of UCB CD34^+ cells, ranging from 1.1% to 14.3% for spontaneous migration and 3.1% to 62.3% for SDF-1-induced (300 ng/mL) migration. The lower migratory capacity in vitro of UCB-derived CD34^+ cells was not due to lower expression of CXCR4, but likely reflects the decreased migratory behavior of these cells. […] Based on this, we postulate that UCB HSPC responsiveness to an SDF-1 gradient varies with each collected UCB unit and that, in cases when responsiveness is low, UCB HSPCs should be identified and primed before infusion.
Moreover, as SLP contains several components that potentially could prime the responses of CD34^+ cells, (Example 2, FIG. 11, panel B) the most important being PMV and activated complement proteins such as anaphylatoxin C3a, soluble VCAM-1, soluble ICAM-1, uPAR, FG, and FN, we evaluated whether these factors could induce the chemotaxis of HSPCs when used alone. […] We also examined whether FG, FN, soluble VCAM-1, soluble ICAM-1, uPAR, and C3a prime HSPCs in their responses to SDF-1. […] To determine whether this also affects UCB CD34^+ clonogenic progenitors, UCB CD34^+ cells were collected from the lower chambers after the chemotaxis assay and plated in methylcellulose cultures. […] Moreover, a similar effect for the established hematopoietic cell lines Molt 4, Nalm-6, and THP-1 was also found (data not shown).

[2] = tested on: CXCR4; assay: CXCR4 incorporation into membrane lipid rafts of UCB CD34+ HSC; type: cell-based, human; details: short-term (15-30 min) exposure to C3a
Procedure: FIG. 14—Priming effect depends on inclusion of CXCR4 into membrane lipid rafts. […] comprises three rows and three columns of images of micrographs. Lipid raft formation on normal human UCB-derived CD34^+ cells not stimulated (control) or stimulated with C3a or desArgC3a. For visualization of lipid rafts, CD34^+ cells were fixed in 3.7% paraformaldehyde/Ca- and Mg-free PBS for 15 min and permeabilized by Triton X-100 in PBS for 5 min at room temperature (RT). The primary antibodies used for raft analysis are cholera toxin B-subunit conjugated with Fluorescein Isothiocyanate (FITC) (Sigma Aldrich, St. Louis, Mo.) and mouse monoclonal anti-hCXCR4 immunoglobulin (Ig)G (R&D Systems, Minneapolis, Minn.). After rinsing in phosphate-buffered saline (PBS), the sections were incubated with Alexa Fluor 568 goat anti-mouse IgG (Molecular Probes, Eugene, Oreg.) for 45 min.

[3] = tested on: human BM- and UCB-derived CD34+ cells; assay: Homing of primed human CD34+ cells into BM of lethally irradiated NOD/SCID mice; type: in vivo
Excerpt: FIG. 16A-B—Panel A: C3a primes homing of murine CFU-GM and CFU-S into BM of lethally irradiated mice. Murine BM-derived Sca-1^+ cells (10^5/mouse) were transplanted into lethally irradiated syngeneic mice. At 16 hrs after transplant, cells were recovered from the femurs of transplanted animals and assayed in secondary cultures for the number of clonogenic CFU-GM (left panel) and, after transplant into secondarily irradiated animals, for the number of day-12 CFU-S (right panel). Data are pooled from three independent experiments using 10 mice each/tested cells (n=30). * p<0.0001. No HSPC cells were recovered from the marrow cavities of control animals (irradiated, not transplanted) Panel B: C3a primes homing of human CB and BM CD34^+ cells into the BM of lethally irradiated NOD/SCID mice. […] Data are pooled from independent experiments preformed on three different CB- and three different BM samples using 2-4 mice/tested cell sample. p<0.0001.
As final proof of our hypothesis and to test whether the primed cells home better to BM, we primed murine BM-derived Sca-1^+ and human BM- and UCB-derived CD34^+ cells with C3a before their transplantation into lethally irradiated mice. Sixteen hrs after transplantation, recipient mice were sacrificed and cells were recovered from their marrow cavities. […]

[4] = tested on: Sca-1+ cells; assay: Hematopoietic recovery of lethally irradiated mice given C3a primed Sca-1+ cells; type: in vivo
Excerpt: FIG. 6A-B—Sca-1^+ Cells Primed with C3a Engraft Faster in Lethally Irradiated Mice. 6A—left panel; 6B—right panel.

[5] = C3a primed hematopoietic progenitors

C3a: 77 amino acid residue protein derived from the human complement C3a precursor; SEQ ID NO:1
SDF-1-mediated transwell cell migration of C3a primed UCB CD34+ HSC [1]: enhanced
responsiveness of UCB cells to SDF-1 gradient ([1]; UCB-derived CD34+ cells exposed/primed): significantly increase the responsiveness
chemotactic response of UCB CD34+ cells to SDF-1 ([1]; added to lower chambers with SDF-1 10 ng/mL, uPAR, ICAM, VCAM, C3a 1 μg/mL, FN 2 μg/mL, FG 4 μg/mL): increased the chemotactic response
induction of chemotaxis of HSPCs when used alone ([1]; without SDF-1): no evidence that they did
CXCR4 incorporation into membrane lipid rafts [2]: enhances CXCR4 incorporation
marrow homing, number of CFU-GM harvested per femur ([3]; 24 h after injection of NOD/SCID mice, C3a primed UCB CD34+ HSC): enhanced marrow homing
homing of human CFU-GM into BM ([3]; CB and BM CD34+ cells preincubated with C3a 30 min, 16 hrs after transplantation): home more efficiently; also recorded: homed better; also recorded: primes homing
faster rate of leukocyte recovery relative to untreated mice [4, 5]: 5 days
platelet counts [4, 5]: benefit in platelet counts
infusional toxicity and coagulopathy ([4]; murine studies): neither infusional toxicity nor evidence of coagulopathy was observed
